Measured values as given in ChEMBL document CHEMBL1130449, “Potent novel nonsteroidal androgen antagonists with a phthalimide skeleton” (1997).

How the values were obtained:
SC-3 = experiment: Growth inhibition of androgen-dependent clonal cell line SC-3, derived from Shionogi carcinoma 115; assay type: functional, Mus musculus; set-up: unit not given here
HL-60 [1] = experiment: Production of TNF-alpha by HL-60 cells in the presence of 50 nM okadaic acid with 300 nM test compound
HL-60 [2] = experiment: Production of TNF-alpha in HL-60 cells in the presence of 50 nM okadaic acid with 30 uM test compound

| SMILES | No. of cells (SC-3) | Production (HL-60 [1]) | Production (HL-60 [2]) |
| --- | --- | --- | --- |
| C[C@@H](C1CCCCC1)N1C(=O)c2c(F)c(F)c(F)c(F)c2C1=O | 2 | 10% | – |
| C[C@@H](c1ccccc1)N1C(=O)c2c(F)c(F)c(F)c(F)c2C1=O | 16 | 2% | – |
| CC(=O)C(CN1C(=O)c2ccccc2C1=O)C(C)=O | 49 | – | 72% |
| C[C@H](c1ccccc1)N1C(=O)c2c(F)c(F)c(F)c(F)c2C1=O | 3 | 70% | – |
| O=C1c2c(F)c(F)c(F)c(F)c2C(=O)N1CC1Cc2ccccc2C1 | 61 | 43% | – |
| C[C@@H](c1cccc2ccccc12)N1C(=O)c2c(F)c(F)c(F)c(F)c2C1=O | 9 | 2% | – |
| C[C@H](c1cccc2ccccc12)N1C(=O)c2c(F)c(F)c(F)c(F)c2C1=O | 14 | 101% | – |
| O=C1c2ccccc2C(=O)N1CC1Cc2ccccc2C1 | 56 | – | 50% |
| O=C1c2ccccc2C(=O)N1CNc1ccccc1 | 91 | – | 73% |
| O=C1c2ccccc2C(=O)N1Cc1c(Cl)cccc1Cl | 69 | – | 39% |
| C[C@H](C1CCCCC1)N1C(=O)c2c(F)c(F)c(F)c(F)c2C1=O | 5 | 65% | – |
| O=C1c2c(F)c(F)c(F)c(F)c2C(=O)N1Cc1c(Cl)cccc1Cl | 45 | 76% | – |
| CC(C)C(=O)Nc1ccc([N+](=O)[O-])c(C(F)(F)F)c1 [FLUTAMIDE] | 66 | – | 103% |
